IC50 and Ki data for one compound are collected here from ChEMBL document CHEMBL1909046, “DrugMatrix in vitro pharmacology data”.

Sequence of Sodium-dependent noradrenaline transporter (P23975 whole entry): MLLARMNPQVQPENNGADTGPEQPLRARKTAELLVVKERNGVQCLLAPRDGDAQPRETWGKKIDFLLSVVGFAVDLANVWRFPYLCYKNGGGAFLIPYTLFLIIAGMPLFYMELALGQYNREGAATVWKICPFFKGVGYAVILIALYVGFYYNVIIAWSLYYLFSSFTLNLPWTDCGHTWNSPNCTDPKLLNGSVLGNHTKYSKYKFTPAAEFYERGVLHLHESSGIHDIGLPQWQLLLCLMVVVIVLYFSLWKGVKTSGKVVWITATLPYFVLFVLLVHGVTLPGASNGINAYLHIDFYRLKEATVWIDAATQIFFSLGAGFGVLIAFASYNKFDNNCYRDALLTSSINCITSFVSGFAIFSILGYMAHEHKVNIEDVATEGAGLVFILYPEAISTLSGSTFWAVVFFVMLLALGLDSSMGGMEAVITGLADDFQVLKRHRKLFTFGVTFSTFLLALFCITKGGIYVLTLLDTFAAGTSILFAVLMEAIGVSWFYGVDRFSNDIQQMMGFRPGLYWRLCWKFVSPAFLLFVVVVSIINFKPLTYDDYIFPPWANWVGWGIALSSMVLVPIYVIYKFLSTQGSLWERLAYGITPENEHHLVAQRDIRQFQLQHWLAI

One data set concerns the target Sodium-dependent noradrenaline transporter (Homo sapiens, UniProt P23975). In words: DRUGMATRIX: Norepinephrine Transporter radioligand binding (ligand: [125I] RTI-55). The format is cell membranes, MDCK, Membrane. Conditions: mdck; Not Active = under 50% inhibition at 10 µM.
With `C/C=C1\[C@H]2C=C(C)C[C@]1(N)c1ccc(=O)[nH]c1C2` [HUPERZINE A], the IC50 result is given as “Not Active”.

Tested on in the next data set: not listed separately
As to the kind of experiment: DRUGMATRIX: Atrial Natriuretic Factor (ANF) radioligand binding (ligand: [125I] ANF (rat)). The format is cell membranes, Cavia porcellus, Dunkin-Hartley, Adrenal gland, Membrane. Conditions: Not Active = under 50% inhibition at 10 µM.
In the case of `C/C=C1\[C@H]2C=C(C)C[C@]1(N)c1ccc(=O)[nH]c1C2` [HUPERZINE A], the IC50 result is listed as “Not Active” and the Ki result is “Not Active”.

The target of a further data set is T1, Endothelin-1 receptor (Homo sapiens, UniProt P25101). Note: in other assays of this panel Not Active means under 50% inhibition at 10 µM.
T1 sequence (P25101 whole entry): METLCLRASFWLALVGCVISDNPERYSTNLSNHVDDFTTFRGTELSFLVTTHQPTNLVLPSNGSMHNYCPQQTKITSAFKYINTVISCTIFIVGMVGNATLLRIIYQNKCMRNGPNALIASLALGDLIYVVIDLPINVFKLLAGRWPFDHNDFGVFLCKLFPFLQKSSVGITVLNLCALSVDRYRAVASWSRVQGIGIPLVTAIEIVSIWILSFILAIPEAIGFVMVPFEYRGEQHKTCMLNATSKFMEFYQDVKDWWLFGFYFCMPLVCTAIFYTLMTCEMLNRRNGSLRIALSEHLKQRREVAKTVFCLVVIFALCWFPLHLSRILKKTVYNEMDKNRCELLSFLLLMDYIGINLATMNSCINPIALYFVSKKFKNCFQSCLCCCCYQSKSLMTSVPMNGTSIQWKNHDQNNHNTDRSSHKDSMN
The format is cell membranes, Membrane. Conditions: cho-k1.
With `C/C=C1\[C@H]2C=C(C)C[C@]1(N)c1ccc(=O)[nH]c1C2` [HUPERZINE A], the IC50 entry is reported as “Not Active”.

Tested on in the next data set: not listed separately
As to the kind of experiment: DRUGMATRIX: GABAA, Flunitrazepam, Central radioligand binding (ligand: [3H] Flunitrazepam). The format is cell membranes, Rattus norvegicus, Wistar, Brain, Membrane. Conditions: Not Active = under 50% inhibition at 10 µM.
As for `C/C=C1\[C@H]2C=C(C)C[C@]1(N)c1ccc(=O)[nH]c1C2` [HUPERZINE A], the IC50 entry is “Not Active” and the Ki entry is reported as “Not Active”.

Another data set deals with T2, Muscarinic acetylcholine receptor M2 (Homo sapiens, UniProt P08172).
T2 sequence (P08172 whole entry): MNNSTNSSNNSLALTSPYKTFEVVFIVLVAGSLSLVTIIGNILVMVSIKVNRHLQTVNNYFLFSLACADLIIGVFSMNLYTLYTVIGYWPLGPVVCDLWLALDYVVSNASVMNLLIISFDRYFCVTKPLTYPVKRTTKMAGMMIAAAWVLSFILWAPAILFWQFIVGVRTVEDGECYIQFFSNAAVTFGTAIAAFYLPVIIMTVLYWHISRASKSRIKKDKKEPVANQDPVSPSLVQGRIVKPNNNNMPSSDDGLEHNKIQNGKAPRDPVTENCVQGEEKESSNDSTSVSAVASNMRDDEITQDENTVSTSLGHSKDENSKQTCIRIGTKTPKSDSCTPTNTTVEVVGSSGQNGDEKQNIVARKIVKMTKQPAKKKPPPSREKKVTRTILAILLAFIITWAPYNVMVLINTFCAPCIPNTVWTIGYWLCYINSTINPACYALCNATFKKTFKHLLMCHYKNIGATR
The format is cell membranes, CHO-K1, Membrane. Conditions: cho-k1.
As for `C/C=C1\[C@H]2C=C(C)C[C@]1(N)c1ccc(=O)[nH]c1C2` [HUPERZINE A], the IC50 result is reported as “Not Active”.

For another data set, the target named is Cytochrome P450 2C9 (Homo sapiens, UniProt P11712). The following applies: bti-tn-5b1-4. Note: in other assays of this panel Not Active means under 50% inhibition at 10 µM.
Sequence of Cytochrome P450 2C9 (P11712 whole entry): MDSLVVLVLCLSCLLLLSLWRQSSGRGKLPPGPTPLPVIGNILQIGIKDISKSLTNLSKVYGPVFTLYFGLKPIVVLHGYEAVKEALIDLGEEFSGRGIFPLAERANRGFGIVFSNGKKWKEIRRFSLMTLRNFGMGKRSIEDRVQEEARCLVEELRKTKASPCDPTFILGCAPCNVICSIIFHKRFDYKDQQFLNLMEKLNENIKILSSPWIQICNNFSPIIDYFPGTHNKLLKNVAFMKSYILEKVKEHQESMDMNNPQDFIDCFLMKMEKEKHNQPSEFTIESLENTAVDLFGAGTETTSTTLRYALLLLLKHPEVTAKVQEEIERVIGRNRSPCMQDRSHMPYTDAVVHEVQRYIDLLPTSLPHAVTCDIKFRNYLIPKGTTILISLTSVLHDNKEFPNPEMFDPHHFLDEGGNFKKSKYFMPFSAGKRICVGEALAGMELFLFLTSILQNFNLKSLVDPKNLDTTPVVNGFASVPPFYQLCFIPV
For the compound `C/C=C1\[C@H]2C=C(C)C[C@]1(N)c1ccc(=O)[nH]c1C2` [HUPERZINE A], the IC50 entry is listed as “Not Active” and the Ki result is “Not Active”.

For the next data set, the target named is Beta-2 adrenergic receptor (Homo sapiens, UniProt P07550). As to the kind of experiment: DRUGMATRIX: Adrenergic beta2 radioligand binding (ligand: [3H] CGP-12177). The following applies: cho; Not Active = under 50% inhibition at 10 µM. The format is cell membranes, Membrane.
Sequence of Beta-2 adrenergic receptor (P07550 whole entry): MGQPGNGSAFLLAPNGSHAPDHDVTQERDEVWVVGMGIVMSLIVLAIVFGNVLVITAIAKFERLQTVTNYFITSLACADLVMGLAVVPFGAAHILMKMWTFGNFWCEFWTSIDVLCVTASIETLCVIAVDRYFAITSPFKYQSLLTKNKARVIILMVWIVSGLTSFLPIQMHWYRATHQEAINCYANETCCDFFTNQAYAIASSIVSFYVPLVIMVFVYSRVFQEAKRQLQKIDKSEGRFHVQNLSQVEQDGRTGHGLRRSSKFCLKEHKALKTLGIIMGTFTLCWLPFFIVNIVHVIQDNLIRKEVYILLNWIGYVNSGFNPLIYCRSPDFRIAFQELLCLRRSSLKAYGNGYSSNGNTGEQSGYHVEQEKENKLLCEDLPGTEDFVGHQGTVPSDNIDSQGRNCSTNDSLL
For the compound `C/C=C1\[C@H]2C=C(C)C[C@]1(N)c1ccc(=O)[nH]c1C2` [HUPERZINE A], the IC50 result was “Not Active”.

The target of another data set is T3, 5-hydroxytryptamine receptor 1A (Rattus norvegicus, UniProt P19327). Note: in other assays of this panel Not Active means under 50% inhibition at 10 µM.
T3 sequence (P19327 whole entry): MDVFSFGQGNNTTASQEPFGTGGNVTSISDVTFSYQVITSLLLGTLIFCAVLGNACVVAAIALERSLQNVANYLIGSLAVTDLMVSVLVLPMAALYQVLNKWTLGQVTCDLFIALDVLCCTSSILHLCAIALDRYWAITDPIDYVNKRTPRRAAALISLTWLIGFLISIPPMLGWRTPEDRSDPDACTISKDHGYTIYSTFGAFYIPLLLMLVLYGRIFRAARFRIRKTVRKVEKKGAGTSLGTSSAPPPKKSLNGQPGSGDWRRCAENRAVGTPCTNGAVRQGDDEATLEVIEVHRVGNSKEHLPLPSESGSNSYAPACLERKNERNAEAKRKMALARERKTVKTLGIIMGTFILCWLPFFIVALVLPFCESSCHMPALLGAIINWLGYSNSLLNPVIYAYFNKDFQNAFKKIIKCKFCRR
The format is cell membranes, CHO-K1, Membrane. Conditions: cho-k1.
On to `C/C=C1\[C@H]2C=C(C)C[C@]1(N)c1ccc(=O)[nH]c1C2` [HUPERZINE A], for which the IC50 result is “Not Active”.

The target of another data set is Protein phosphatase 3 catalytic subunit alpha (Homo sapiens, UniProt Q08209). Further details: species or system Escherichia coli.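 Note: inhibition of calcineurin (PP2B) enzyme activity, measured with DiFMUP as the substrate; in other assays of this panel Not Active means under 50% inhibition at 10 µM.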
Settings: not given
For `C/C=C1\[C@H]2C=C(C)C[C@]1(N)c1ccc(=O)[nH]c1C2` [HUPERZINE A], the IC50 result is given as “Not Active”.

Tested on in the next data set: not listed separately
In words: DRUGMATRIX: Calcium Channel Type L, Dihydropyridine radioligand binding (ligand: [3H] Nitrendipine). The following applies: Not Active = under 50% inhibition at 10 µM. The format is cell membranes, Rattus norvegicus, Wistar, Cerebral cortex, Membrane.
Take `C/C=C1\[C@H]2C=C(C)C[C@]1(N)c1ccc(=O)[nH]c1C2` [HUPERZINE A]: the IC50 result is “Not Active” and the Ki result was “Not Active”.

The target in a further data set is T4, Alpha-2C adrenergic receptor (Homo sapiens, UniProt P18825).
T4 sequence (P18825 whole entry): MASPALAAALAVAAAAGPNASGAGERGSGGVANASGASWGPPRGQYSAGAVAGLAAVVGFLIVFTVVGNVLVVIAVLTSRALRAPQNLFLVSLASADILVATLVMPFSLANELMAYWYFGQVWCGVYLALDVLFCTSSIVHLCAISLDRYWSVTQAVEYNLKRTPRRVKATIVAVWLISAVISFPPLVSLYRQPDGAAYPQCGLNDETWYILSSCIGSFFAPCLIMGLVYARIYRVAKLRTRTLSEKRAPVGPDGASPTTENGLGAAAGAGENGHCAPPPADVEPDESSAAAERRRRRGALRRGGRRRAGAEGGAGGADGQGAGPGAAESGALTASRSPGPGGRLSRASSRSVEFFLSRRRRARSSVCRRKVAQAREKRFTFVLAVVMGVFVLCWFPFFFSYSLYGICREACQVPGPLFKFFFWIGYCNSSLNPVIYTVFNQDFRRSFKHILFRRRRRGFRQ
In words: DRUGMATRIX: Adrenergic Alpha-2C radioligand binding (ligand: [3H] MK-912). The format is cell membranes, Sf9, Membrane. The following applies: sf9.
Regarding `C/C=C1\[C@H]2C=C(C)C[C@]1(N)c1ccc(=O)[nH]c1C2` [HUPERZINE A], the IC50 entry is given as “Not Active”.

A further data set deals with Kappa-type opioid receptor (Homo sapiens, UniProt P41145). In words: DRUGMATRIX: Opiate kappa (OP2, KOP) radioligand binding (ligand: [3H] Diprenorphine). The format is cell membranes, HEK293, Membrane. Conditions: hek293; Not Active = under 50% inhibition at 10 µM.
Sequence of Kappa-type opioid receptor (P41145 whole entry): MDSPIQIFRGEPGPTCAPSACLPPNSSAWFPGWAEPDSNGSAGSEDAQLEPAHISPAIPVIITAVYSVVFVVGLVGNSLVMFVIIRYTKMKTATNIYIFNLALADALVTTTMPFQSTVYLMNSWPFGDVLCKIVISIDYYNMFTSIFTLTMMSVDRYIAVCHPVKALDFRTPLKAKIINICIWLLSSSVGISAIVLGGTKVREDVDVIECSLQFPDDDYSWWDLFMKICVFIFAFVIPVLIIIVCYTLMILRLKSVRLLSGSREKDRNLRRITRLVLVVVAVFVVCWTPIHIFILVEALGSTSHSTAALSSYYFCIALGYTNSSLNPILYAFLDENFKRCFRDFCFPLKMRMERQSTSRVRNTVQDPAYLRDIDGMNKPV
Turning to `C/C=C1\[C@H]2C=C(C)C[C@]1(N)c1ccc(=O)[nH]c1C2` [HUPERZINE A], the IC50 entry is “Not Active”.

Tested on in another data set: not listed separately
As to the kind of experiment: DRUGMATRIX: Phosphodiesterase PDE3 enzyme inhibition (substrate: [3H]cAMP + cAMP). The format is tissue-based, Homo sapiens. Conditions: platelet; Not Active = under 50% inhibition at 10 µM.
Take `C/C=C1\[C@H]2C=C(C)C[C@]1(N)c1ccc(=O)[nH]c1C2` [HUPERZINE A]: the IC50 result was “Not Active” and the Ki entry is reported as “Not Active”.

The target in another data set is Cannabinoid receptor 1 (Homo sapiens, UniProt P21554). The format is cell membranes, Membrane. The following applies: chem-1. Note: in other assays of this panel Not Active means under 50% inhibition at 10 µM.
Sequence of Cannabinoid receptor 1 (P21554 whole entry): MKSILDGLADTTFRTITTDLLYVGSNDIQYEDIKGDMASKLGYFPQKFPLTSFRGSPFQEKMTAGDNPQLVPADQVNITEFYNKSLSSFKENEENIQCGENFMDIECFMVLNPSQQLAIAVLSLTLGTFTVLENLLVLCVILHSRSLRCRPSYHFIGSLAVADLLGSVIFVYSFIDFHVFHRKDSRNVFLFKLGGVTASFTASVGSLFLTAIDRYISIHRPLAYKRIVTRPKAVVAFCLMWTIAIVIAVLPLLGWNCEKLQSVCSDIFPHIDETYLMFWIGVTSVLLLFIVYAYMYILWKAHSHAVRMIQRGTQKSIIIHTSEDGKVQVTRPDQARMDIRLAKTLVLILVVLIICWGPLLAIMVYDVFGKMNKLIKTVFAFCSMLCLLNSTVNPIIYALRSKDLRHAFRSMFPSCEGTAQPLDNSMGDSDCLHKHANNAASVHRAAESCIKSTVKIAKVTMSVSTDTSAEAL
In the case of `C/C=C1\[C@H]2C=C(C)C[C@]1(N)c1ccc(=O)[nH]c1C2` [HUPERZINE A], the IC50 entry is recorded as “Not Active”.
